Data published in ChEMBL document CHEMBL4507319 (2021).

Columns and labels:
Conditions in all cases: Compound concentration 1.0 uM
[1] = target: Dual specificity mitogen-activated protein kinase kinase 1 (Homo sapiens) (UniProt Q02750); assay: MEK1(h) Eurofins kinase panel
[2] = target: T1, cGMP-dependent protein kinase 1 (Homo sapiens) (UniProt Q13976); assay: PKG1beta (h) Eurofins kinase panel
T1 sequence (whole entry): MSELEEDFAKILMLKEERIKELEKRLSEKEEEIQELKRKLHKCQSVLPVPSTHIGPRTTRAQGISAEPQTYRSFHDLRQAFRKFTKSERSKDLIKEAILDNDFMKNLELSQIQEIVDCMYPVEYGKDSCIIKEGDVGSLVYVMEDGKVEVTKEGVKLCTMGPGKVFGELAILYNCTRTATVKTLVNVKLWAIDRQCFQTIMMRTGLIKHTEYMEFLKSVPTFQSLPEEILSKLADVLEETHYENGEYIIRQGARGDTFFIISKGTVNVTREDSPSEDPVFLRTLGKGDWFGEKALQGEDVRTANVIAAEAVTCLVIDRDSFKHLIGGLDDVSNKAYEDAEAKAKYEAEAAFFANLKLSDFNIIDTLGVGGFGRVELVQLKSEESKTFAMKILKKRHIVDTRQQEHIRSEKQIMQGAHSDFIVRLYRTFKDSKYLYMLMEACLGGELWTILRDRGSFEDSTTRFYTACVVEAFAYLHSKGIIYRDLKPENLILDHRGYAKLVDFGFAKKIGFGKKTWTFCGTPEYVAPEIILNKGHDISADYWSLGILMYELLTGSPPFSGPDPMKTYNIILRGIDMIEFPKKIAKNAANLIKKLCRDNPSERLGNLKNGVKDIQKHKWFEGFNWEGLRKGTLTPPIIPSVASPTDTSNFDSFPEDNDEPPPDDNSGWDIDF

[3] = target: Cyclin-dependent kinase 1/cyclin B (Homo sapiens) (UniProt P06493+P14635+Q8WWL7+O95067); assay: CDK1/cyclinB(h) Eurofins kinase panel; format: protein-complex assay
[4] = target: Macrophage colony-stimulating factor 1 receptor (Homo sapiens) (UniProt P07333); assay: Fms(h) Eurofins kinase panel
[5] = target: eIF-2-alpha kinase GCN2 (Homo sapiens) (UniProt Q9P2K8); assay: GCN2(h) Eurofins kinase panel
[6] = target: T2, Phosphatidylinositol 3-kinase C2 domain-containing subunit gamma (Homo sapiens) (UniProt O75747); assay: PI3KC2g(h) Eurofins kinase panel
T2 sequence (whole entry): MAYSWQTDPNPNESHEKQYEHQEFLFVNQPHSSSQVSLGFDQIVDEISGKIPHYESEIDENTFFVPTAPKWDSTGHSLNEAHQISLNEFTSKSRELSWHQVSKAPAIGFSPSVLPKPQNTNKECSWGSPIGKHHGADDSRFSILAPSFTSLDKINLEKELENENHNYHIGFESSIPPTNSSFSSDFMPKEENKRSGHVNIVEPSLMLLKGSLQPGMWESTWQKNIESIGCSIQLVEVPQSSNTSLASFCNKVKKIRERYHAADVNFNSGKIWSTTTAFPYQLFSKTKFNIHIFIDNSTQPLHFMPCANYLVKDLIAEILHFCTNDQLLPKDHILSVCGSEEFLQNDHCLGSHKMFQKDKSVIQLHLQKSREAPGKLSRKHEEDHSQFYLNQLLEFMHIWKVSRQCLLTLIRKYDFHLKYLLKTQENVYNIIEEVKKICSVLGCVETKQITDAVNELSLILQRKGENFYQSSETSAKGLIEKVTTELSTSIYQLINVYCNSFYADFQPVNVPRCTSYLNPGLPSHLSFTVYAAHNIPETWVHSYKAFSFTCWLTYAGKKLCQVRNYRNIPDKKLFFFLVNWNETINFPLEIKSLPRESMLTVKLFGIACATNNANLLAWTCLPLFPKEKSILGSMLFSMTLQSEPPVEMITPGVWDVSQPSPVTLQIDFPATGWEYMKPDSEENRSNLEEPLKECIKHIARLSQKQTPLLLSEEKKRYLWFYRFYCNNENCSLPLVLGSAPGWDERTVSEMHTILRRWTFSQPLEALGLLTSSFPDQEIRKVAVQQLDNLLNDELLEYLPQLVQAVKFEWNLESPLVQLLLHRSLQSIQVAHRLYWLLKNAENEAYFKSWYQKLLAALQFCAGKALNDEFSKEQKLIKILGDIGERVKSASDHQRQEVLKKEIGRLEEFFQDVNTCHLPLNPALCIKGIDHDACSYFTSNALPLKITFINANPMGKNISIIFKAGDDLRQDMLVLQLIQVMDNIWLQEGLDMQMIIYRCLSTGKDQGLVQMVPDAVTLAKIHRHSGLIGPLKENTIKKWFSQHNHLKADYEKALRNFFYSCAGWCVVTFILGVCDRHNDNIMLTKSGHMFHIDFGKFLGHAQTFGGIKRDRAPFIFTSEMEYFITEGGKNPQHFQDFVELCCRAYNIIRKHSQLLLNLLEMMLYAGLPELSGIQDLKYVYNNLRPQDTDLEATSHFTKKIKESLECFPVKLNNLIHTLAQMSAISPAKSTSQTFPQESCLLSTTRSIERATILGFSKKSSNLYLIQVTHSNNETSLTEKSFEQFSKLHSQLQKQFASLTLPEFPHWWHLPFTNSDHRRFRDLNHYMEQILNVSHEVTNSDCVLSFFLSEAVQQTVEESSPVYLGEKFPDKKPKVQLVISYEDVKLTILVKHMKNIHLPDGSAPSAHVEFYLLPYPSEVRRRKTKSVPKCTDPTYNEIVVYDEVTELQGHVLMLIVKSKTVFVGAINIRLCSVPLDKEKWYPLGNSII

[7] = target: T3, Serine/threonine-protein kinase NLK (Homo sapiens) (UniProt Q9UBE8); assay: NLK(h) Eurofins kinase panel
T3 sequence (whole entry): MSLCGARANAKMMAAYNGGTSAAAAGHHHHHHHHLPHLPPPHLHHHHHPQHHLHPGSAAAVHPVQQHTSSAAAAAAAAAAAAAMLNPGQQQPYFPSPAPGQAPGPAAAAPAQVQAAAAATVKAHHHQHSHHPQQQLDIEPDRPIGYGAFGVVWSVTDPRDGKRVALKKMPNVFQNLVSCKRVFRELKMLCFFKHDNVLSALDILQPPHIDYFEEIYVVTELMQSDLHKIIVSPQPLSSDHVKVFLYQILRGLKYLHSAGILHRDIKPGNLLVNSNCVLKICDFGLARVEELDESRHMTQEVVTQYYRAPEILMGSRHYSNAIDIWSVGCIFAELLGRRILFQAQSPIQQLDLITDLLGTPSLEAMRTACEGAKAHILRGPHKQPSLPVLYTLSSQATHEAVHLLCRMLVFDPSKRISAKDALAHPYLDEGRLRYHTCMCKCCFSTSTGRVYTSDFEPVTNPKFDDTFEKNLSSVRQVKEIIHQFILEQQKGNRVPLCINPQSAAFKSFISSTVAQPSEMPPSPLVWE

[8] = target: Serine-protein kinase ATM (Homo sapiens) (UniProt Q13315); assay: ATM(h) Eurofins kinase panel
[9] = target: Tyrosine-protein kinase Fgr (Homo sapiens) (UniProt P09769); assay: Fgr(h) Eurofins kinase panel

Measured: % residual kinase activity

Sequence of eIF-2-alpha kinase GCN2 (Homo sapiens) (Q9P2K8 whole entry, the tested form may be a part): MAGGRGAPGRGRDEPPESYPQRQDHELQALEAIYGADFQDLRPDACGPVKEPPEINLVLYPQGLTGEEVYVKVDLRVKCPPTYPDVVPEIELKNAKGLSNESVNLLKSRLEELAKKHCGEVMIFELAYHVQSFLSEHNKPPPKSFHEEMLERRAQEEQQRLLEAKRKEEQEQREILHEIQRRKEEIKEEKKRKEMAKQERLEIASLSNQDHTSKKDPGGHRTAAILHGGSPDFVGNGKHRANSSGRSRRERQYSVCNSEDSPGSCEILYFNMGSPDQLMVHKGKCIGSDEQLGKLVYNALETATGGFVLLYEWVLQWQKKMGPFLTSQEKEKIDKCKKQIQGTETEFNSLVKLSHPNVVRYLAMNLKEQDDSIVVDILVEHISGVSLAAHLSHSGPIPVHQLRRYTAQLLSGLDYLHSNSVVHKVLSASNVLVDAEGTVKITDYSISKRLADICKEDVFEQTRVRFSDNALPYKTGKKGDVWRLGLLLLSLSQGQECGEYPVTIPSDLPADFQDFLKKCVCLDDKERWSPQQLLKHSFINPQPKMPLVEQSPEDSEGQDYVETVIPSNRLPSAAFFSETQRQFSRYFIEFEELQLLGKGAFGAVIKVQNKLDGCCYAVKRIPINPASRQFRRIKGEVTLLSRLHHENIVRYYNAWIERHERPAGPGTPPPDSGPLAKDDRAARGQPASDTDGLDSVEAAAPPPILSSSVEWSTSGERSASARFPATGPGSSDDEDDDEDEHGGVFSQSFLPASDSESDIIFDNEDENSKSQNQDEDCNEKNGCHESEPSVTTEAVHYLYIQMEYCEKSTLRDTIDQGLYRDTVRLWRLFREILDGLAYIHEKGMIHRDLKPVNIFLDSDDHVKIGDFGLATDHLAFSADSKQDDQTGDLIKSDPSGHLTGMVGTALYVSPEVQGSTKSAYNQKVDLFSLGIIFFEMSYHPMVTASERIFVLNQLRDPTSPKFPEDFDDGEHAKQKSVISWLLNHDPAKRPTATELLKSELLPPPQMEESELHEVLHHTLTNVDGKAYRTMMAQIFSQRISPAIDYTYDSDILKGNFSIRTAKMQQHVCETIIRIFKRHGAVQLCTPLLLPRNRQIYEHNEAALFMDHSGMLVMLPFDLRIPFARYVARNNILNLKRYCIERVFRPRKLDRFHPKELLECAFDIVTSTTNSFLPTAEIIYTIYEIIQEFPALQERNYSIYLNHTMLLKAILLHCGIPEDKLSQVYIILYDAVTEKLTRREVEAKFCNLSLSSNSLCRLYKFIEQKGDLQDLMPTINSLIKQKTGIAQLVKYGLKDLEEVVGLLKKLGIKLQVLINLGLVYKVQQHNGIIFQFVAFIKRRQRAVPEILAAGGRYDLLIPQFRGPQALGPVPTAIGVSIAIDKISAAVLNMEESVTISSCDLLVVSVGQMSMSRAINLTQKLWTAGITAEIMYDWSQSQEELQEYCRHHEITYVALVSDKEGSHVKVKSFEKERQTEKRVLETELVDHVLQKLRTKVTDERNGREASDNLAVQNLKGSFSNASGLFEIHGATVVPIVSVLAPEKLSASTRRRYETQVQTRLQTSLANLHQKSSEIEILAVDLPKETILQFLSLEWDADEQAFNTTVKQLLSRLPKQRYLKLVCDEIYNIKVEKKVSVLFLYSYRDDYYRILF
Sequence of Serine-protein kinase ATM (Homo sapiens) (Q13315 whole entry): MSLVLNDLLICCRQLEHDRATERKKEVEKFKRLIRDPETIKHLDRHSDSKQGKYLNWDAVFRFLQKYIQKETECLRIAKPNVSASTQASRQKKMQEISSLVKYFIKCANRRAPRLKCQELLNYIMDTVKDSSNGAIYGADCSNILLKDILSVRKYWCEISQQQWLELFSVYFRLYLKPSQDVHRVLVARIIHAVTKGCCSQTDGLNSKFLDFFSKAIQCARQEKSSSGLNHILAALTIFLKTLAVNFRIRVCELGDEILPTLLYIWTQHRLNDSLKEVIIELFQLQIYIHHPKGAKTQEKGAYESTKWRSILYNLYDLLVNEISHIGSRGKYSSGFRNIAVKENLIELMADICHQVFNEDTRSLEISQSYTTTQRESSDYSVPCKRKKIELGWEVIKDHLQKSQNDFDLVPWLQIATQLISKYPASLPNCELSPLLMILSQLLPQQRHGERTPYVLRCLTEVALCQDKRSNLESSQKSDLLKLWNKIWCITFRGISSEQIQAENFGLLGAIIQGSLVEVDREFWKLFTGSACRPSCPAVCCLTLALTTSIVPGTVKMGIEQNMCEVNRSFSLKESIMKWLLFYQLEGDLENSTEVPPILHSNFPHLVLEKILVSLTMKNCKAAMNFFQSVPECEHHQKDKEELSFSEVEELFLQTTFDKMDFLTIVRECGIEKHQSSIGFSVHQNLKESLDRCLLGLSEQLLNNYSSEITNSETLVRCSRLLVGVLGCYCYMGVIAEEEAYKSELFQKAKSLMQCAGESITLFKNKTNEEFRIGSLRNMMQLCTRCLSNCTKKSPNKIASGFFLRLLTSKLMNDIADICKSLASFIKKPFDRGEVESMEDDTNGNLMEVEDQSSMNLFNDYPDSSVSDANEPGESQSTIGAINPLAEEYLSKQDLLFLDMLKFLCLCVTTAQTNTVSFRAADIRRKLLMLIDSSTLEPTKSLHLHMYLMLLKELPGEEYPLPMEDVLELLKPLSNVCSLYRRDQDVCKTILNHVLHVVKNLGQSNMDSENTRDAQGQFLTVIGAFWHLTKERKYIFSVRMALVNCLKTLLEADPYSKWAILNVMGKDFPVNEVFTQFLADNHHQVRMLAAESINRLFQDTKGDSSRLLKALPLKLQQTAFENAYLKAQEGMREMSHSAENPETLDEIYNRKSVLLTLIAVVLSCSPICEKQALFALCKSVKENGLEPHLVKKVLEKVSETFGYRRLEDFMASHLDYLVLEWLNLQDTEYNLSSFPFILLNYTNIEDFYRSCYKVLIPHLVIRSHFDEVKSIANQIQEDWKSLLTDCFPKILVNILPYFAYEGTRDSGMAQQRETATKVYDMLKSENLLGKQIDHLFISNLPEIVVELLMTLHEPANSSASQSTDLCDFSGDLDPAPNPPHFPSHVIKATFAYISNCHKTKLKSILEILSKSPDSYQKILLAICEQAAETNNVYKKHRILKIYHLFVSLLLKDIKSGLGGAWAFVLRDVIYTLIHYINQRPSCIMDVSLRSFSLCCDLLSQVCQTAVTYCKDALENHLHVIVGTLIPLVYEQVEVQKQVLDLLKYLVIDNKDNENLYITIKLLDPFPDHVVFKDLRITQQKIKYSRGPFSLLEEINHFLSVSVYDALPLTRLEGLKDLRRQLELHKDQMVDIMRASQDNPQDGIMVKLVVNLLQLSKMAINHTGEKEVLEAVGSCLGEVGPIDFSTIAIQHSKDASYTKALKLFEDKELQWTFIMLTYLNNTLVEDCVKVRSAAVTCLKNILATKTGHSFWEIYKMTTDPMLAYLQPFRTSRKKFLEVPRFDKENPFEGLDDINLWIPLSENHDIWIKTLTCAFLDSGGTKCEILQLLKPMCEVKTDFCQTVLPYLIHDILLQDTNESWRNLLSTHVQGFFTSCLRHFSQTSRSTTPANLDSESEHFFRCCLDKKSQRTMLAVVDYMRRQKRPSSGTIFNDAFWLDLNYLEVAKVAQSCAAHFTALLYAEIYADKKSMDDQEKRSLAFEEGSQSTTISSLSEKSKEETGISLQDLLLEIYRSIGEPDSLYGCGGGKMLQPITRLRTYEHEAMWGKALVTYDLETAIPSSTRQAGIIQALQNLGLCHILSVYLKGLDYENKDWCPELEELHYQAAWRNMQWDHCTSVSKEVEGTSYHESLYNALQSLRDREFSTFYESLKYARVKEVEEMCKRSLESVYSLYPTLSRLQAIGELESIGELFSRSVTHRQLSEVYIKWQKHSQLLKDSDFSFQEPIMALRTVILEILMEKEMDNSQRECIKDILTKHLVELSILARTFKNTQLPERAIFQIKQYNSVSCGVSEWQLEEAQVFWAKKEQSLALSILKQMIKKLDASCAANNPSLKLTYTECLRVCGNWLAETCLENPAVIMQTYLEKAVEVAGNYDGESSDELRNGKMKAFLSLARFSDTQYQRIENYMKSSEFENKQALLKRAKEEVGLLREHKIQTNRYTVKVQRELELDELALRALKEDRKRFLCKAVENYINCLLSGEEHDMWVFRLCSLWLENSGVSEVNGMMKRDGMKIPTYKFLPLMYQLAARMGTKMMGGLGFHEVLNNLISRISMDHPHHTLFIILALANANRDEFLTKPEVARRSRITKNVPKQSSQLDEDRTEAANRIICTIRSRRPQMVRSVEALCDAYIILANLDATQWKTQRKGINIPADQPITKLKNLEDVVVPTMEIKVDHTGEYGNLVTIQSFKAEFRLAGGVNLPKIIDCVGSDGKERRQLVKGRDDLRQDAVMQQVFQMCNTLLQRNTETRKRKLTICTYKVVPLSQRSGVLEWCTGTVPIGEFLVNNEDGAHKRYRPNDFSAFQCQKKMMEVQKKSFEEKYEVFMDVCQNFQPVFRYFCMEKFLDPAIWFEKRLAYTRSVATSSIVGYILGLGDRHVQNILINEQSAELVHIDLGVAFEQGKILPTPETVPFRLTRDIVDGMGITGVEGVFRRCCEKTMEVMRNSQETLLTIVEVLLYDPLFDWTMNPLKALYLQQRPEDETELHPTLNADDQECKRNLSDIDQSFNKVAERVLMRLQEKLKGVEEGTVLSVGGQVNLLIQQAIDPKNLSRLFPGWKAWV
Sequence of Dual specificity mitogen-activated protein kinase kinase 1 (Homo sapiens) (Q02750 whole entry): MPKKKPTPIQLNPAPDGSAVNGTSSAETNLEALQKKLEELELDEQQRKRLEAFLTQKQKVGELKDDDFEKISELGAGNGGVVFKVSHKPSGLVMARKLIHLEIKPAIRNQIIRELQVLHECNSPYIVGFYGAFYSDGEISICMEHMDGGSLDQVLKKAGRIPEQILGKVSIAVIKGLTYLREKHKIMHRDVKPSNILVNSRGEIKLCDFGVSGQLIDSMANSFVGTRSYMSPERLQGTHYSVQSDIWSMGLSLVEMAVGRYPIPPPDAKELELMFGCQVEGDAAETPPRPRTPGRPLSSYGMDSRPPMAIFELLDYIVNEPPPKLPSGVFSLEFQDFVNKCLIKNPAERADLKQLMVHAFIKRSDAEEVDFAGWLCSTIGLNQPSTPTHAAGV

CCc1ccccc1C(=O)Nc1n[nH]c2c(C)c(F)c(C3C(C#N)=C(C)N(C)C(C)=C3C#N)cc12 [BAY-3827]
inactive: [1] 90% | [2] 78% | [3] 98% | [4] 99% | [5] 100% | [6] 100% | [7] 91% | [8] 99% | [9] 93%
